For one molecule, IC50 results are on record in patent US10611766B2, “Pyrazolopyrimidine derivatives as BTK inhibitors for the treatment of cancer” (Loxo Oncology, Inc., priority 2015, dated 2020).

This experiment has as its system OCI-Ly10 human DLBCL cells. Nature of the experiment: OCI-Ly10 anti-proliferative activity (Resazurin, 72 h). Format: cell-based. To be noted: read-out: Proliferation OCI-Ly10-IC50. As to the method:
Compounds were assayed for effects on the growth of OCI-Ly10 human DLBCL cells that are dependent on NFκB signalling. OCI-Ly10 cells were grown in suspension in T225 flasks, centrifuged and re-suspended in 2.5% FBS containing media. Cells were then plated at 7.5×10^3 cells per well in 96-well plates in varying concentrations of compound and incubated for 72 h at 37° C. An additional plate of cells to be used as the Day 0 read was seeded without compound addition, Resazurin was added to each well, incubated for 5 h and the fluorescence measured at 590 nm. After 72 h of compound treatment, Resazurin was added to each well of the compound treated plates, incubated for 5 h and the fluorescence measured at 590 nm. The IC50 was then calculated by subtracting the average Day 0 value from each well value from the treated plates, each treatment was then calculated as a percentage of the DMSO control and the percentages plotted against the inhibitor concentration to estimate the IC50 from log [Inhibitor] vs response using the Variable Slope model in Graphpad prism from Graphpad software (SanDiego, Calif.).

Take `COc1ccccc1C(=O)NCc1ccc(-c2nn(C3CCC(C(=O)N(C)C)CC3)c3ncnc(N)c23)cc1` (single isomer, unassigned; isomer 1) [33-isomer 1]: the IC50 lay in the range of 10 to 100 nM.
